Assay results taken from patent US20250145631A1, “HETEROCYCLIC COMPOUND ACTING ON G12D MUTANT KRAS PROTEIN” (Astellas Pharma Inc., priority 2022, published 2025).
Where a name gives a salt, the structure may show the parent alone.

Assays:
Assay type in all cases: cell-based
[1] = target: T1, KRAS G12D (Homo sapiens, UniProt P01116, G12D); assay: KRAS degradation activity by Cell ELISA in AsPC-1 cells (Test Example 1); conditions: Cell ELISA; for Dmax: ASPC1, overnight treatment, read-out: Dmax (degradation rate at the concentration showing highest degradation); for DC50: overnight treatment, read-out: DC50 (50% degradation concentration of KRAS)
T1 construct: host or cells: AsPC-1 (human pancreatic cancer line)
T1 sequence (P01116 1-188 isoform P01116-2 G12D): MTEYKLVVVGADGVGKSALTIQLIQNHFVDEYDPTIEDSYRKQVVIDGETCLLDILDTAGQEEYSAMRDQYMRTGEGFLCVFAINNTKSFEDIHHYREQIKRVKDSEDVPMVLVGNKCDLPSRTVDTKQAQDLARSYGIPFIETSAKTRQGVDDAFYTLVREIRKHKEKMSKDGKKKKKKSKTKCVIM
Method: The KRAS degradation activity of test compounds was evaluated by measuring the expression levels of KRAS G12D by Cell ELISA.
AsPC-1 cells were seeded at 20 μL per well on 384-well plates (from Greiner bio-one) to give 2.0×10^4 cells per well. As for the cell culture conditions, RPMI 1640 (from Sigma-Aldrich) medium containing 10% fetal bovine serum (from Cytiva) was used in the presence of 5% CO2 at 37° C.
The next day, the test compounds (10 points having final concentrations in the range of 10 μM to 0.3 nM) and DMSO (from FUJIFILM Wako Pure Chemical Corporation), which was the solvent for the test compounds, as a negative control were diluted 500-fold with a fresh medium and were added at 20 μL per well. The cells were cultured overnight. The next day, the culture supernatant was removed, and 4% paraformaldehyde phosphate buffer (from FUJIFILM Wako Pure Chemical Corporation) was added at 20 μL per well. The plates were allowed to stand for 30 minutes at room temperature to thus immobilize the cells. Then, the supernatant was removed, and 0.1% Triton X-100 (from Amersham Biosciences)-containing Phosphate buffered saline (PBS; from FUJIFILM Wako Pure Chemical Corporation) was added at 20 μL per well. After allowing to stand for 10 minutes at room temperature, the supernatant was removed. PBS was added at 25 μL per well, and the supernatant was removed to thus wash each well. The washing was performed twice in total. Next, the supernatant was removed, and 0.5% sodium dodecyl sulfate (SDS; from Invitrogen)-containing PBS was added at 20 μL per well. After allowing to stand at room temperature for 10 minutes, the supernatant was removed by a centrifugal operation (using a centrifugal dehydrator machine, the supernatant was removed by the same method hereinafter). PBS was added at 25 μL per well, and the supernatant was removed to thus wash each well. The washing was performed twice in total. The supernatant was removed, and blocking solution (Intercept Blocking Buffer; from Li—COR Biosciences) was added at 20 μL per well. After allowing to stand for 30 minutes at room temperature, the supernatant was removed, and a solution obtained by diluting anti-β-actin antibody (Anti-beta Actin antibody [mAbcam 8226]-Loading Control; from abcam) 1,000-fold with blocking solution and a solution obtained by diluting anti-Ras (G12D Mutant Specific) antibody (Ras (G12D Mutant Specific) (D8H7) Rabbit mAb #14429; from Cell Signaling Technology) and anti-β-actin antibody (from abcam) 1,000-fold with blocking solution were respectively added to positive control wells and the other wells at 15 μL per well as a primary antibody. The plates were allowed to stand overnight at 4° C.
The next day, the supernatant was removed. PBS was added at 25 μL per well, and the supernatant was removed to thus wash each well. The washing was performed twice in total. The supernatant was removed, and a solution obtained by diluting Donkey anti-Mouse IgG H&L (IRDye 680RD) (from Li—COR Biosciences) and Goat anti-Rabbit IgG H&L (IRDye 800CW) (from Li—COR Biosciences) 1,000-fold with blocking solution was added at 15 μL per well as a secondary antibody. A solution obtained by diluting Donkey anti-Mouse IgG H&L (IRDye 680RD) (from Li—COR Biosciences) 1,000-fold with blocking solution was added to a positive control well as a secondary antibody. After allowing to stand for 1 hour at room temperature, the supernatant was removed. PBS was added at […], and the supernatant was removed to thus wash each well. The washing was performed twice in total. After removing the supernatant, the plates were dried with air at room temperature for 2 hours or more, and the 700 nm and 800 nm fluorescent signals were measured with Aerius (from Li—COR Biosciences). […]

[2] = test system: phosphorylation of ERK (Thr202/Tyr204); assay: ERK phosphorylation inhibitory effect by Cell ELISA in AsPC-1 cells (Test Example 2); conditions: Homo sapiens, ASPC1, overnight treatment, Cell ELISA, read-out: IC50 (ERK phosphorylation inhibition)
Method: The ERK phosphorylation inhibitory effect of test compounds was evaluated by measuring phosphorylation of threonine 202 (Thr202) and tyrosine 204 (Tyr204) of ERK located downstream of the KRAS signal by Cell ELISA.
AsPC-1 cells were seeded on 384-well plates at 20 µL/well to give 2.0×10^4 cells per well. As for the cell culture conditions, RPMI 1640 medium containing 10% fetal bovine serum was used in the presence of 5% CO2 at 37° C.
The next day, the test compounds (10 points having final concentrations in the range of 10 μM to 0.3 nM), trametinib (MEK inhibitor) of a final concentration of […] as positive control and DMSO, which was the solvent for the test compounds, as negative control were diluted 500-fold with a fresh medium and were added at 20 μL per well. The cells were cultured overnight. After culturing, 30% glyoxal solution (40% glyoxal [from Nacalai Tesque]was diluted with PBS) was quickly added at 30 μL per well, and the plates were allowed to stand for 120 minutes at room temperature to thus immobilize the cells. Then, the plates were centrifuged to remove the supernatant (using a centrifugal dehydrator machine, the supernatant was removed by the same method hereinafter), and 0.10% Triton X-100-containing PBS was added at 20 μL per well. After allowing to stand for 10 minutes at room temperature, the supernatant was removed, and the same operation was further repeated. Next, 0.5% SDS-containing PBS was added at 20 μL per well, and after allowing to stand at room temperature for 30 minutes, the supernatant was removed. Subsequently, blocking solution (Intercept Blocking Buffer) was added at 20 μL per well, and the plates were allowed to stand for 1 hour at room temperature. The supernatant was removed, and an ERK (Thr202/Tyr204) phosphorylation antibody (Phospho-p44/42 MAPK (Erk 1/2) (Thr202/Tyr204) (D13.14.4E) XP Rabbit mAb; from Cell Signaling Technology) diluted 2,500-fold with blocking solution was added at 15 μL per well as a primary antibody. The plates were allowed to stand at 4° C. overnight.
The next day, the supernatant was removed. 0.05% Tween-20 (from Thermo Fisher Scientific)-containing PBS was added at 50 μL per well, and the supernatant was removed to thus wash each well. The washing was performed three times in total. After washing, Goat anti-Rabbit IgG H&L (IRDye 800CW) diluted 1,000-fold with blocking solution was added at 15 μL per well as a secondary antibody, and the plates were allowed to stand for 1 hour at room temperature. The supernatant was removed, and each well was washed three times with 0.05% Tween-20-containing PBS in the same manner as after the primary antibody reaction. After removing the supernatant, the plates were dried with air at room temperature for 3 hours or more, and the 800-nm fluorescent signals were measured with Aerius.
With the signaling value at the time of addition of DMSO taken as 100% and with the signaling value at the time of addition of […] trametinib taken as 0%, the 50% inhibitory concentration values (IC50) were calculated by Sigmoid-Emax nonlinear regression analysis. The calculated 50% inhibition represents the inhibition at the highest concentration evaluated (10 μM) for a compound that exceeds the concentration in the evaluation range.
(§1) In the tables presented below, Ex represents Example No. The IC50 of Ex. 13, Ex. 15, and Ex. 16 were calculated using the molecular weights as tetrahydrochloride, and the IC50 of Ex. 14 was calculated using the molecular weight as trihydrochloride.

[3] = test system: human G12D mutant KRAS-positive pancreatic cancer line AsPC-1; assay: Non-anchorage-dependent cell growth inhibitory effect, spheroid 3D culture (Test Example 3); conditions: ASPC1, 144 h, AsPC-1 spheroid 3D culture, 6 days; for IC50: CellTiter Glo 2.0, read-out: IC50 (non-anchorage-dependent cell growth inhibition)
Method: The non-anchorage-dependent cell growth inhibitory effect of test compounds was evaluated by spheroid 3D cell culture.
AsPC-1 cells were seeded on low-cell-adhesive round bottom 384-well plates (PrimeSurface: from Sumitomo Bakelite) at 20 μL (or […])/well to give 5×10^2 cells per well. As for the cell culture conditions, RPMI 1640 medium containing 10% fetal bovine serum was used in the presence of 5% CO2 at 37° C.
The next day, the test compounds (10 points or 6 points having final concentrations in the range of 10 μM to 0.3 nM) and DMSO, which was the solvent for the test compounds, as a negative control were diluted 500-fold (or 100-fold) with a fresh medium and were added at 20 μL (or […]) per well. After culturing in the presence of 5% C02 at 37° C. for 6 days, CellTiter Glo 2.0 (from Promega) was added at 20 μL per well. After stirring with a plate mixer (from FINEPCR) at normal temperature for 1 hour, the luminescent signals were measured with ARVO X3 (from PerkinElmer).
With the signaling value in treatment with DMSO taken as 100% and with the signaling value in the medium alone without cells taken as 0%, the 50% inhibitory concentration values (IC50) were calculated by Sigmoid-Emax nonlinear regression analysis. The calculated 50% inhibition represents the inhibition at the highest concentration evaluated (10 μM) for a compound that exceeds the concentration in the evaluation range.
as §1

Structure (SMILES) | Dmax [1] | DC50 [1] | IC50 [2] | IC50 [3] | inhibition at 10 µM ([3]; at 10 μM, read-out: cell growth inhibition at the highest concentration evaluated)
Cc1c(F)cc2[nH]ncc2c1-c1c(C2CC2)cc2c(N3C[C@@H]4C[C@H]3CN4)nc(OC3CCOCC3)nc2c1OCc1ccc(C(=O)N2CCN(Cc3ccc4c(N5CCC(=O)NC5=O)nn(C)c4c3)C[C@@H]2C)cc1 (atropisomer, axis not shown; (M)) [Example 16, 1-(6-{[(3S)-4-{4-[({(7M)-6-cyclopropyl-4-[(1S,4S)-2,5-diazabicyclo[2.2.1]heptan-2-yl]-7-(6-fluoro-5-methyl-1H-indazol-4-yl)-2-[(oxan-4-yl)oxy]quinazolin-8-yl}oxy)methyl]benzoyl}-3-methylpiperazin-1-yl]methyl}-1-methyl-1H-indazol-3-yl)-1,3-diazinane-2,4-dione n hydrochloride] | 86% | 71 nM | 158 nM | 73 nM | –
Cc1c(F)cc2[nH]ncc2c1-c1c(C2CC2)cc2c(N3C[C@@H]4C[C@H]3CN4)nc(OC3CCOCC3)nc2c1OCc1ccc(C(=O)N2CCN(Cc3ccc4c(c3)C(=O)N(C3CCC(=O)NC3=O)C4=O)CC2)cc1 (some centres unmarked) [Example 1] | 59% | 1950 nM | 3360 nM | – | 37%
Cc1c(F)cc2[nH]ncc2c1-c1c(C2CC2)cc2c(N3C[C@@H]4C[C@H]3CN4)nc(OC3CCOCC3)nc2c1OCc1ccc(C(=O)N2CCN(CCc3ccc4c(c3)c(N3CCC(=O)NC3=O)nn4C)C[C@@H]2C)cc1 (atropisomer, axis not shown) [Example 42] | 89% | 294 nM | 365 nM | 399 nM | –
Cc1c(F)cc2[nH]ncc2c1-c1c(C2CC2)cc2c(N3C[C@@H]4C[C@H]3CN4)nc(OC3CCOCC3)nc2c1OCc1ccc(C(=O)N2CCC3(CN(Cc4ccc5c(N6CCC(=O)NC6=O)nn(C)c5c4)C3)C2)cc1 (atropisomer, axis not shown) [Example 19] | 93% | 278 nM | 555 nM | 242 nM | –
Cc1c(F)cc2[nH]ncc2c1-c1c(C2CC2)cc2c(N3C[C@@H]4C[C@H]3CN4)nc(OC3CCOCC3)nc2c1OCc1ccc(C(=O)N2CC[C@H](N(C)Cc3ccc4c(N5CCC(=O)NC5=O)nn(C)c4c3)C2)cc1 (atropisomer, axis not shown) [Example 20] | 78% | 488 nM | 1070 nM | 884 nM | –
Cc1c(F)cc2[nH]ncc2c1-c1c(C2CC2)cc2c(O[C@H]3CCNC3)cc(OC[C@@H]3CCCO3)nc2c1OCc1ccc(C(=O)N2CCN(Cc3ccc4c(c3)n(C)c(=O)n4C3CCC(=O)NC3=O)C[C@@H]2C)cc1 (some centres unmarked) [Example 31] | 71% | 115 nM | 158 nM | 147 nM | –
Cc1c(F)cc2[nH]ncc2c1-c1c(C2CC2)cc2c(N3C[C@@H]4C[C@H]3CN4)nc(OC3CCOCC3)nc2c1OCc1ccc(C(=O)N2CCN(Cc3ccc4c(N5CCC(=O)NC5=O)nn(C)c4c3)C[C@H]2C)cc1 (atropisomer, axis not shown) [Example 15] | 60% | 406 nM | 503 nM | 211 nM | –
CC[C@H]1CN(Cc2ccc3c(N4CCC(=O)NC4=O)nn(C)c3c2)CCN1C(=O)c1ccc(COc2c(-c3c(C)c(F)cc4[nH]ncc34)c(C3CC3)cc3c(N4C[C@@H]5C[C@H]4CN5)nc(OC4CCOCC4)nc23)cc1 (atropisomer, axis not shown) [Example 25] | 70% | 856 nM | 668 nM | 460 nM | –
